From paper PMC3878761, “Interactions of peptide triazole thiols with Env gp120 induce irreversible breakdown and inactivation of HIV-1 virions” (Retrovirology, 2013)
Where “and” joins values, the source holds several entries; their conditions need not be identical. Equal entries are not always repeated. Entries after “also recorded” stand apart in the source; their conditions may differ. Where two headings read alike, the source gives them in different places. Starred links: 1 amine or outer side, 2 acyl side, 3 side chain; linkers in the order of their positions; H or OH if unused. Non-standard residues stand in square brackets, D forms with d. Residues, ends and D or L forms follow the SMILES beside them. X1 = O=C([C@@H]1C[C@H](n2cc([C]34[CH]5[CH]6[CH]7[CH]3[Fe]6754389%10[CH]4[CH]3[CH]8[CH]9[CH]4%10)nn2)CN1[*:1])[*:2]; βAla = NCCC(=O)O

What was measured:
[1] = tested on: gp41 of HIV-1 BaL pseudovirus (2 F5 epitope); assay: exposure of gp41 MPER epitope, 2 F5 ELISA; settings: fixed BaL pseudovirions, 30 min at 37°C (dose) or 1 μM (time), n = 3
Protocol: (§1) We also measured the presence of gp41 epitopes for human mAb’s 2 F5 and 4E10 using an altered ELISA detection method to minimize virus particle disruption. […] Virus fractions were collected and fixed with equal volume of 0.1% paraformaldehyde for 30 minutes at 4°C. The treated virus fractions were spun at 16,000 X g for 2 hours at 4°C in an Eppendorf table top centrifuge. Following PBS wash, fixed virions were coated on an ELISA plate at 50 μl per well and incubated overnight at 4°C. The plate was blocked with 3% BSA, and ELISA was used to detect gp41 epitopes with human gp41 antibodies 2 F5 and 4E10 followed by addition of anti-human IgG HRP secondary antibody.

[2] = tested on: fully infectious HIV-1 BaL virions; settings: upto 200 µM, n = 3
Protocol: (§2) The replication competent virions were assayed for peptide triazole-induced inhibition of infection, gp120 shedding and p24 release in a BSL-2 facility. Gradient purification of the viruses and p24 release assays were performed as with pseudoviruses (described in Materials and Methods above). Cell infection by virus and its inhibition by peptide triazoles were tested using a modified version of a previously reported p24 ELISA assay [60]. The p24 release assays as well as detection of gp120 shedding were conducted as with the BaL pseudovirions (described in Materials and Methods above).
(§3) Virions were purified using 6-20% iodixanol gradient and p24 content measured using ELISA. […] HOS CD4^+ve CCR5^+ve cells seeded, at 8,000 cells per well in a 96 well plate, were incubated for 24 hours followed by addition of pre-incubated inhibitor-virus mixture. […] Further, the peptide triazole and cell-free virus were pre-incubated for 30 min at 37°C followed by spinning for 2 hours at 13,600 rpm in a table top centrifuge (Eppendorf) at 4°C. Supernatant was separated and p24 content determined using the p24 capture ELISA (explained in the main Materials and Methods section) and gp120 using western blot analysis (explained in the Supplementary Text above).

[3] = tested on: HIV-1 BaL pseudovirus; assay: gp120 shedding from HIV-1 BaL pseudovirus (western blot)
[4] = tested on: gp41 of HIV-1 BaL pseudovirus (98–6 epitope); assay: gp41 content of treated virions, mAb 98-6 western blot; settings: western blot mAb 98–6, BaL pseudovirus
[5] = tested on: HIV-1 BaL pseudovirus; assay: p24 release from HIV-1 BaL pseudovirus (ELISA); settings: ELISA
[6] = tested on: fully infectious HIV-1 BaL virions; assay: gp120 shedding from fully infectious HIV-1 BaL; settings: read-out: gp120 shedding IC50 (*, fully infectious), 30 min at 37°C, western blot, ± SD
Protocol: as §2, §3

[7] = biological target: T1, HIV-1 YU2 gp120 (Human immunodeficiency virus type 1 group M subtype B, UniProt P35961); assay: SPR direct binding to immobilized YU2 gp120; settings: immobilized YU2 gp120, PBS + 0.005% Tween 20, pH 7.2, 25°C
T1 construct: made in house; host or cells: 293F cells
Protocol: (Additional file 1: Figure S2). […] Direct binding of the peptide triazole to sensor chip immobilized HIV-1 YU2 gp120 was measured as previously described using Surface Plasmon Resonance (SPR) with a Biacore 3000 optical biosensor (GE Healthcare). […] The cell viability was measured using the tetrazolium salt premix reagent, WST-1 from Takara Bio Inc. following the manufacturer’s protocol. The formazan product was measured using the microplate reader at absorbance wavelength 460 nm (Molecular Devices).

[8] = tested on: gp41 of HIV-1 BaL pseudovirus (4E10 epitope); assay: exposure of gp41 MPER epitope, 4E10 ELISA; settings: fixed BaL pseudovirions, 30 min at 37°C (dose) or 1 μM (time), n = 3
Protocol: as §1

[9] = tested on: HIV-1 BaL pseudovirus
[10] = biological target: T2, sCD4 binding to plate-immobilized YU2 gp120 (Human immunodeficiency virus type 1 group M subtype B, UniProt P35961); assay: competition ELISA, sCD4 binding to gp120; parameters: species or system HIV-1; settings: ± SD, n > 3
T2 construct: made in house; host or cells: 293F cells

[11] = biological target: T3, 17b binding to plate-immobilized YU2 gp120 (Human immunodeficiency virus type 1 group M subtype B, UniProt P35961); assay: competition ELISA, mAb 17b binding to gp120; parameters: species or system HIV-1; settings: m17b binding to plate-immobilized gp120, ± SD, n > 3
T3 construct: made in house; host or cells: 293F cells

[12] = tested on: CD4^-ve CCR5^+ve cells; settings: cited from earlier work
Protocol: The same incubation conditions were used as for inhibition of HIV-1 entry into HOS […] cells.

[13] = biological target: HIV-1 BaL Env gp120 on virions (HIV-1 BaL)
[14] = tested on: R5-tropic and X4-tropic HIV-1; parameters: method as in 2 sources, one per row (each row's own in cited_ref): ref 7-9, 12 = [7]; PMID 20518583; doi:10.2165/11203940-000000000-00000; Perry CM Maraviroc: a review of its use in the management of CCR5-tropic HIV-1 infection Drugs 2010 10 9 1189 1213 10.2165/11203940-000000000-00000 20518583 || [8]; PMID 23541872; doi:10.1016/j.antiviral.2013.03.017; Haqqani AA Tilton JC Entry inhibitors and their use in the treatment of HIV-1 infection Antiviral Res 2013 10 2 158 170 10.1016/j.antiviral.2013.03.017 23541872 || [9]; PMID 23290628; doi:10.1016/j.coviro.2012.12.002; Henrich TJ Kuritzkes DR HIV-1 entry inhibitors: recent development and clinical use Curr Opin Virol 2013 10 1 51 57 10.1016/j.coviro.2012.12.002 23290628 PMC4213740 || [12]; PMID 17933722; Emmelkamp JM Rockstroh JK CCR5 antagonists: comparison of efficacy, side effects, pharmacokinetics and interactions–review of the literature Eur J Med Res 2007 10 9 409 417 17933722 ||| ref 34 = [34]; PMID 23470147; doi:10.1021/bi400166b; Emileh A Tuzer F Yeh H Umashankara M Moreira DR Lalonde JM Bewley CA Abrams CF Chaiken IM A model of peptide triazole entry inhibitor binding to HIV-1 gp120 and the mechanism of bridging sheet disrupt; settings: cited from earlier work
[15] = parenteral; cited from earlier work
Excerpt: There is an urgent need for new antiretroviral agents for the prevention and treatment of HIV-1. Most of the currently approved HIV drugs target viral enzymes, in particular reverse transcriptase, protease and integrase. In contrast, the number of anti-HIV drugs targeting the entry process is more limited. The proteins involved in HIV-1 entry include gp120 and gp41 organized as a trimer on the viral envelope spike, and both CD4 and a chemokine receptor, either CCR5 or CXCR4, on the cell surface. The fusion inhibitor enfuvirtide (T20) and the CCR5 inhibitor maraviroc are t ...

[16] = tested on: HIV-1 BaL pseudovirus; settings: KR13 1 μM, T20 dilutions from 1 μM, 30 min at 37°C, p24 ELISA, ± SD, n = 3
Protocol: (§4) Treated virion samples were fractionated on a 6-20% iodixanol gradient (above). Gradient fractions were quantified for p24 using ELISA, and relative p24 release was quantified and plotted using the Origin Pro.8 (Origin Lab). Collected gradient fractions also were analyzed for gp120 shedding using western blot analysis, with detection using primary antibody D7324 and secondary anti-sheep HRP. The bands of the blot were analyzed using Image J software. The IC50 values were calculated using Origin Pro.8 (Origin Lab).

[17] = tested on: HIV-1 BaL pseudovirus; assay: T20 effect on KR13-induced gp120 shedding, BaL; settings: KR13 1 μM, T20 up to 1 μM, western blot, n = 3
Protocol: as §4

CC[C@H](C)[C@H](NC(=O)[C@@H](N)CCCNC(=N)N)C(=O)N[C@@H](CC(N)=O)C(=O)N[C@@H](CC(N)=O)C(=O)N[C@H](C(=O)N1C[C@@H](n2cc([C]34[CH]5[CH]6[CH]7[CH]3[Fe]6754389%10[CH]4[CH]3[CH]8[CH]9[CH]4%10)nn2)C[C@H]1C(=O)N[C@@H](Cc1c[nH]c2ccccc12)C(=O)N[C@@H](CO)C(=O)N[C@@H](CCC(=O)O)C(=O)N[C@@H](C)C(=O)N[C@@H](CCSC)C(=O)N[C@@H](CCSC)C(N)=O)[C@@H](C)CC (stereo partly shown) [HNG156]
reactivity to 2 F5 [1]: MPER epitopes were poorly exposed | p24 release, fully infectious, in words [2]: No p24 release was observed | gp120 shedding, in words [3]: caused gp120 shedding; also recorded: induced only gp120 shedding | gp41 retention / 98–6 detection [4]: gp41 remained associated with virions | p24 release, in words [5]: neither of these peptides caused p24 release | IC50 [6]: 1800 nM | SPR direct binding to gp120, in words [7]: bound to gp120 | reactivity to 4E10 [8]: MPER epitopes were poorly exposed | kinetics of infectivity inhibition versus gp120 shedding ([9]; KR13 1 μM or HNG156 100 μM, 1 min to 24 hours, 37°C): infectivity inhibition and gp120 shedding had similar kinetics

CC[C@H](C)[C@H](NC(=O)[C@@H](N)CCCNC(=N)N)C(=O)N[C@@H](CC(N)=O)C(=O)N[C@@H](CC(N)=O)C(=O)N[C@H](C(=O)N1C[C@@H](n2cc([C]34[CH]5[CH]6[CH]7[CH]3[Fe]6754389%10[CH]4[CH]3[CH]8[CH]9[CH]4%10)nn2)C[C@H]1C(=O)N[C@@H](Cc1c[nH]c2ccccc12)C(=O)N[C@@H](CO)C(=O)N[C@@H](CCC(=O)O)C(=O)N[C@@H](C)C(=O)N[C@@H](CCSC)C(=O)N[C@@H](CCSC)C(=O)NCCC(=O)N[C@@H](CCC(N)=O)C(=O)NCCC(=O)N[C@@H](CSCNC(C)=O)C(N)=O)[C@@H](C)CC (stereo partly shown) [KR13b]
gp120 shedding, in words [3]: caused gp120 shedding; also recorded: induced only gp120 shedding | p24 release, in words [5]: neither of these peptides caused p24 release | SPR direct binding to gp120, in words [7]: bound to gp120

CC[C@H](C)[C@H](NC(=O)[C@H](CC(N)=O)NC(=O)[C@H](CC(N)=O)NC(=O)[C@@H](NC(=O)[C@@H](N)CCCNC(=N)N)[C@@H](C)CC)C(=O)N[C@@H](Cc1c[nH]c2ccccc12)C(=O)N1C[C@@H](n2cc([C]34[CH]5[CH]6[CH]7[CH]3[Fe]6754389%10[CH]4[CH]3[CH]8[CH]9[CH]4%10)nn2)C[C@H]1C(=O)N[C@@H](CO)C(=O)N[C@@H](CCC(=O)O)C(=O)N[C@@H](C)C(=O)N[C@@H](CCSC)C(=O)N[C@@H](CCSC)C(=O)NCCC(=O)N[C@@H](CCC(N)=O)C(=O)NCCC(=O)N[C@@H](CS)C(N)=O (stereo partly shown) [KR13s] (H-RINNIW[X1]SEAMM[βAla]Q[βAla]C-NH2; N-terminus assumed)
IC50, sCD4 competition [10]: undetected | gp120 shedding, in words [3]: not the KR13s control, caused gp120 shedding | IC50, 17b competition [11]: undetected | SPR direct binding to gp120, in words [7]: low and inconsistent dose dependent signals | inhibition of infection, in words ([9]; single round infection assay): inactive

CC1(C)CC(NC(=O)C(=O)Nc2ccc(Cl)cc2)CC(C)(C)N1 [NBD-556]
activation of infection, CD4^-ve CCR5^+ve cells (NBD-556) [12]: can activate infection in CD4^-ve CCR5^+ve cells

KR13b (KR13 with the thiol blocked with an acetamidomethyl (ACM) group) (peptide)
gp120 shedding from HIV-1 BaL pseudovirus (western blot), IC50 [13]: 120 nM | inhibition of cell infection (viral inactivation), HIV-1 BaL pseudovirus, EC50 [13]: 52 nM

Maraviroc [reference compound]
antiviral tropism [14]: blocks R5-tropic but not X4-tropic HIV-1

enfuvirtide
adverse reactions at sites of injection [15]: adverse reactions at sites of injection are common | IC50 [16]: 15 nM and 15.9 nM | effect of T20 on KR13-induced gp120 shedding [17]: did not affect gp120 shedding caused by KR13; also recorded: No significant effect on the gp120 release | IC50 ([9]; read-out: IC50, infection inhibition, BaL (Figure S9), Figure S9, ± SD, n = 3): 34.5 ± 1.2 nM
